According to patent US20250339569A1, “CARBONIC ANHYDRASE IX LIGANDS” (priority 2021, published 2025):
Where two headings read alike, the source gives them in different places. Starred links: 1 amine or outer side, 2 acyl side, 3 side chain; linkers in the order of their positions; H or OH if unused. Positions of bridges follow the written chain, without caps; N, C: chain ends. Non-standard residues stand in square brackets, D forms with d. Residues, ends and D or L forms follow the SMILES beside them. Groups on a side chain read outwards from the residue. *: point of attachment. NH(CH2)3NH(O2Oc(DOTA)) = O=C(O)CN1CCN(CC(=O)O)CCN(CC(=O)NCCOCCOCC(=O)NCCCN*)CCN(CC(=O)O)CC1; NH(1-deoxy-D-glucityl) = OC[C@@H](O)[C@@H](O)[C@H](O)[C@@H](O)CN*; X62 = O=C(Nc1cccc(C[C@H](N[*:1])C(=O)[*:2])c1)c1c[nH]cn1; DOTA = O=C(O)CN1CCN(CC(=O)O)CCN(CC(=O)*)CCN(CC(=O)O)CC1; X54 = O=C(Nc1cccc(C[C@H](N[*:1])C(=O)[*:2])c1)c1cnco1; Phe(4-NH2) = Nc1ccc(C[C@H](N)C(=O)O)cc1; mXylylene = c1cc(C[*:1])cc(C[*:2])c1; Hydrocinnamoyl = O=C(CCc1ccccc1)*; X2 = O=C(CN1CCC(N[*:1])CC1)[*:2]; tBuAla = CC(C)(C)C[C@H](N)C(=O)O; Pen = CC(C)(S)[C@H](N)C(=O)O; 4Amb = NCc1ccc(C(=O)O)cc1; Isovaleryl = CC(C)CC(=O)*; Orn = NCCC[C@H](N)C(=O)O; Dap = NC[C@H](N)C(=O)O; X70 = N#Cc1ccc(CN*)cc1

Target: T1, CAIX-expressing human HT-29 colorectal cancer cells (Homo sapiens, UniProt Q16790)
T1 construct: CAIX-expressing human HT-29 colorectal cancer cells; host or cells: HT-29 human colorectal cancer cells
Assay: FACS binding assay (IC50 determination, competition with tracer 3BP-2776 or 3BP-4149)
Conditions: 4° C., 1 hour, read-out: pIC50 category (activity) (converted)
Protocol: In order to determine binding of compounds according to the present invention to CAIX-expressing cells, a FACS binding assay was established.
CAIX-expressing human HT-29 colorectal cancer cells (DSMZ, RRID: CVCL_0320) were cultured in McCoys's 5A modified medium (Biochrom, #F1015) including 10% fetal calf serum (FCS), 2 mM L-glutamine, 100 U/ml penicillin and 100 μg/mL streptomycin. Cells were detached with Accutase (Biolegend, #423201) and washed in FACS buffer (PBS including 1% FCS). Cells were diluted in FACS buffer to a final concentration of 500.000 cells per ml. 200 μL of the cell suspension were transferred to a u-shaped non-binding 96-well plate (Greiner) and cells were washed in ice-cold FACS buffer.
When biotinylated compounds were used an additional incubation step with 1 μg/mL APC-Streptavidin (Miltenyi; #130-106-791) in 50 μL FACS buffer for 30 minutes on ice was performed.
Cells were washed twice with ice-cold FACS buffer and analyzed in an Attune NxT flow cytometer (Thermo Fisher). Median fluorescence intensities (MFI) of the APC/Cy5-channel were calculated by Attune NxT software. MFI values were plotted against peptide concentration and four parameter logistic (4PL) curve fitting and EC50/pEC50 or IC50/pIC50 calculations were performed using ActivityBase software.

[1] = FACS binding assay, HT-29 cells, competition with tracer 3BP-2776 (10 nM, biotin-labeled)
[2] = FACS competition on HT-29 cells, Tracer ID 3BP-2776 (10 nM, biotin-labeled)
[3] = FACS binding assay, HT-29 cells, competition with tracer 3BP-4149 (3 nM, Cy5-labeled)

SMILES	IC50 [1] [nM]	IC50 [2] [nM]	further results
CC(C)C[C@@H]1NC(=O)[C@H](Cc2c[nH]c3ccccc23)NC(=O)[C@H](CC(=O)O)NC(=O)CNC(=O)[C@H](CCC(=O)O)NC(=O)[C@@H](NC(=O)[C@H](Cc2ccc(O)cc2)NC(=O)[C@@H](NC(=O)CCc2ccccc2)C(C)C)CSCc2cccc(c2)CSC[C@@H](C(N)=O)NC(=O)[C@H](CCC(N)=O)NC(=O)[C@H](Cc2c[nH]c3ccccc23)NC(=O)[C@H]([C@@H](C)O)NC1=O [3BP-3110] (Hydrocinnamoyl-VYCEGDWLTWQC-NH2; linker 3-12 via mXylylene)		< 10	
CC(C)C[C@@H]1NC(=O)[C@H](Cc2c[nH]c3ccccc23)NC(=O)[C@H](CC(=O)O)NC(=O)[C@H]2CCCN2C(=O)[C@H](CCC(=O)O)NC(=O)[C@@H]2CSCc3cccc(c3)CSC[C@@H](C(N)=O)NC(=O)[C@H](CCC(=O)NC[C@H](NC(=O)[C@@H](NC(=O)CN3CCC(NC(=O)CN4CCN(CC(=O)O)CCN(CC(=O)O)CCN(CC(=O)O)CC4)CC3)C(C)C)C(=O)N2)NC(=O)[C@H](Cc2c[nH]c3ccccc23)NC(=O)[C@H]([C@@H](C)O)NC1=O [3BP-4177] ({DOTA}-[X2]V[Dap]CE[dP]DWLTWEC-NH2; lactam 3-12; linker 4-13 via mXylylene)	< 10		
CC(C)CC(=O)N[C@@H](CC(=O)O)C(=O)N[C@H]1CSCc2cccc(c2)CSC[C@@H](C(N)=O)NC(=O)[C@H](CO)NC(=O)[C@H](Cc2c[nH]c3ccccc23)NC(=O)[C@H]([C@@H](C)O)NC(=O)[C@H](CC(C)C)NC(=O)[C@H](Cc2c[nH]c3ccccc23)NC(=O)[C@H](CC(=O)O)NC(=O)[C@H]2CCCN2C(=O)[C@H](CCC(=O)O)NC1=O [3BP-3727] (Isovaleryl-DCE[dP]DWLTWSC-NH2; linker 2-11 via mXylylene)		< 10	
CC(C)CC(=O)Nc1ccc(C[C@@H]2NC(=O)[C@H](CC(=O)O)NC(=O)[C@H]3CCCN3C(=O)[C@H](CCC(=O)O)NC(=O)[C@@H](NC(=O)[C@H](Cc3ccc(O)cc3)NC(=O)[C@@H](NC(=O)CN3CCC(NC(=O)CN4CCN(CC(=O)O)CCN(CC(=O)O)CCN(CC(=O)O)CC4)CC3)C(C)C)CSCc3cccc(c3)CSC[C@@H](C(N)=O)NC(=O)[C@H](CO)NC(=O)[C@H](Cc3c[nH]c4ccccc34)NC(=O)[C@H]([C@@H](C)O)NC(=O)[C@H](CC(C)C)NC2=O)cc1 [3BP-4348] ({DOTA}-[X2]VYCE[dP]D[Phe(4-NH2)](Isovaleryl)LTWSC-NH2; linker 4-13 via mXylylene)			IC50 [3]: 100 to 794 nM
CC(C)C[C@@H]1NC(=O)[C@H](Cc2cccc(NC(=O)c3cnco3)c2)NC(=O)[C@H](CC(=O)O)NC(=O)[C@H]2CCCN2C(=O)[C@H](CCC(=O)O)NC(=O)[C@@H](NC(=O)[C@H](Cc2ccc(O)cc2)NC(=O)[C@@H](NC(=O)CN2CCC(NC(=O)CN3CCN(CC(=O)O)CCN(CC(=O)O)CCN(CC(=O)O)CC3)CC2)C(C)C)CSCc2cccc(c2)CSC[C@@H](C(N)=O)NC(=O)[C@H](CO)NC(=O)[C@H](Cc2c[nH]c3ccccc23)NC(=O)[C@H]([C@@H](C)O)NC1=O [3BP-4239] ({DOTA}-[X2]VYCE[dP]D[X54]LTWSC-NH2; linker 4-13 via mXylylene)	10 to 79.4		
CC(=O)N[C@H](C(=O)N[C@@H](Cc1ccc(O)cc1)C(=O)N[C@H]1CSCc2cccc(c2)CSC[C@@H](C(N)=O)NC(=O)[C@H](CCC(N)=O)NC(=O)[C@H](Cc2c[nH]c3ccccc23)NC(=O)[C@H]([C@@H](C)O)NC(=O)[C@H](CC(C)(C)C)NC(=O)[C@H](Cc2c[nH]c3ccccc23)NC(=O)[C@H](CC(=O)O)NC(=O)CNC(=O)[C@H](CCC(=O)O)NC1=O)C(C)C [3BP-3065] (Ac-VYCEGDW[tBuAla]TWQC-NH2; linker 3-12 via mXylylene)		< 10	
CC(C)C[C@@H]1NC(=O)[C@H](Cc2c[nH]c3ccccc23)NC(=O)[C@H](CCC(=O)NCc2ccc(C(N)=O)cc2)NC(=O)[C@H]2CCCN2C(=O)[C@H](CCC(=O)O)NC(=O)[C@@H](NC(=O)[C@H](Cc2ccc(O)cc2)NC(=O)[C@@H](NC(=O)CN2CCC(NC(=O)CN3CCN(CC(=O)O)CCN(CC(=O)O)CCN(CC(=O)O)CC3)CC2)C(C)C)CSCc2cccc(c2)CSC[C@@H](C(N)=O)NC(=O)[C@H](CO)NC(=O)[C@H](Cc2c[nH]c3ccccc23)NC(=O)[C@H]([C@@H](C)O)NC1=O [3BP-4345] ({DOTA}-[X2]VYCE[dP]E([4Amb-NH2])WLTWSC-NH2; linker 4-13 via mXylylene)			IC50 [3]: 10 to 79.4 nM
CC(C)C[C@@H]1NC(=O)[C@H](Cc2c[nH]c3ccccc23)NC(=O)[C@H](CCC(=O)NCc2ccc(C#N)cc2)NC(=O)[C@H]2CCCN2C(=O)[C@H](CCC(=O)O)NC(=O)[C@@H](NC(=O)[C@H](Cc2ccc(O)cc2)NC(=O)[C@@H](NC(=O)CN2CCC(NC(=O)CN3CCN(CC(=O)O)CCN(CC(=O)O)CCN(CC(=O)O)CC3)CC2)C(C)C)CSCc2cccc(c2)CSC[C@@H](C(N)=O)NC(=O)[C@H](CO)NC(=O)[C@H](Cc2c[nH]c3ccccc23)NC(=O)[C@H]([C@@H](C)O)NC1=O [3BP-4340] ({DOTA}-[X2]VYCE[dP]E(X70)WLTWSC-NH2; linker 4-13 via mXylylene)			IC50 [3]: 10 to 79.4 nM
CC(C)CC(=O)N[C@@H](CO)C(=O)N[C@H]1CSCc2cccc(c2)CSC[C@@H](C(N)=O)NC(=O)[C@H](CCC(=O)NCCCNC(=O)COCCOCCNC(=O)CN2CCN(CC(=O)O)CCN(CC(=O)O)CCN(CC(=O)O)CC2)NC(=O)[C@H](Cc2c[nH]c3ccccc23)NC(=O)[C@H]([C@@H](C)O)NC(=O)[C@H](CC(C)C)NC(=O)[C@H](Cc2c[nH]c3ccccc23)NC(=O)[C@H](CC(=O)O)NC(=O)[C@H]2CCCN2C(=O)[C@H](CCC(=O)O)NC1=O [3BP-3743] (Isovaleryl-SCE[dP]DWLTWE(NH(CH2)3NH(O2Oc(DOTA)))C-NH2; linker 2-11 via mXylylene)		< 10	
CC(=O)N[C@H](C(=O)N[C@@H](Cc1ccc(O)cc1)C(=O)N[C@H]1CSCc2cccc(c2)CSC[C@@H](C(N)=O)NC(=O)[C@H](CO)NC(=O)[C@H](Cc2c[nH]c3ccccc23)NC(=O)[C@@H]2CCC(=O)NCCC[C@H](NC(=O)[C@H]3CCCN3C(=O)[C@H](CCC(=O)O)NC1=O)C(=O)N[C@@H](Cc1c[nH]c3ccccc13)C(=O)N[C@@H](CC(C)C)C(=O)N2)C(C)C [3BP-3958] (Ac-VYCE[dP][Orn]WLEWSC-NH2; linker 3-12 via mXylylene; lactam 6-9)	10 to 79.4		

Now from value to molecule, other results behind:

IC50 [1] [nM]	IC50 [2] [nM]	SMILES	further results
< 10		CC(C)C[C@@H]1NC(=O)[C@H](Cc2c[nH]c3ccccc23)NC(=O)[C@H](CC(=O)O)NC(=O)[C@H]2CCCN2C(=O)[C@H](CCC(=O)NC[C@H](O)[C@@H](O)[C@H](O)[C@H](O)CO)NC(=O)[C@@H](NC(=O)[C@H](Cc2ccc(O)cc2)NC(=O)[C@@H](NC(=O)CN2CCC(NC(=O)CN3CCN(CC(=O)O)CCN(CC(=O)O)CCN(CC(=O)O)CC3)CC2)C(C)C)CSCc2cccc(c2)CSC[C@@H](C(N)=O)NC(=O)[C@H](CO)NC(=O)[C@H](Cc2c[nH]c3ccccc23)NC(=O)[C@H]([C@@H](C)O)NC1=O [3BP-4113] ({DOTA}-[X2]VYCE(NH(1-deoxy-D-glucityl))[dP]DWLTWSC-NH2; linker 4-13 via mXylylene)	
10 to 79.4		CC(C)C[C@@H]1NC(=O)[C@H](Cc2cccc(NC(=O)c3c[nH]cn3)c2)NC(=O)[C@H](CC(=O)O)NC(=O)[C@H]2CCCN2C(=O)[C@H](CCC(=O)O)NC(=O)[C@@H](NC(=O)[C@H](Cc2ccc(O)cc2)NC(=O)[C@@H](NC(=O)CN2CCC(NC(=O)CN3CCN(CC(=O)O)CCN(CC(=O)O)CCN(CC(=O)O)CC3)CC2)C(C)C)CSCc2cccc(c2)CSC[C@@H](C(N)=O)NC(=O)[C@H](CO)NC(=O)[C@H](Cc2c[nH]c3ccccc23)NC(=O)[C@H]([C@@H](C)O)NC1=O [3BP-4240] ({DOTA}-[X2]VYCE[dP]D[X62]LTWSC-NH2; linker 4-13 via mXylylene)	
10 to 79.4		CC(=O)N[C@H](C(=O)N[C@@H](Cc1ccc(O)cc1)C(=O)N[C@H]1CSCc2cccc(c2)CSC[C@@H](C(N)=O)NC(=O)[C@H](CO)NC(=O)[C@H](Cc2c[nH]c3ccccc23)NC(=O)[C@@H]2CC(=O)NCCCC[C@H](NC(=O)[C@H]3CCCN3C(=O)[C@H](CCC(=O)O)NC1=O)C(=O)N[C@@H](Cc1c[nH]c3ccccc13)C(=O)N[C@@H](CC(C)C)C(=O)N2)C(C)C [3BP-4046] (Ac-VYCE[dP]KWLDWSC-NH2; linker 3-12 via mXylylene; lactam 6-9)	
	10 to 79.4	CC(=O)N[C@H](C(=O)N[C@@H](Cc1ccc(O)cc1)C(=O)N[C@H]1CSCc2cccc(c2)CSC[C@@H](C(N)=O)NC(=O)[C@H](CCC(N)=O)NC(=O)[C@H](Cc2c[nH]c3ccccc23)NC(=O)[C@H]([C@@H](C)O)NC(=O)[C@H](CC(C)C)NC(=O)[C@H](Cc2c[nH]c3ccccc23)NC(=O)[C@H](C)NC(=O)CNC(=O)[C@H](CCC(=O)O)NC1=O)C(C)C [3BP-3053] (Ac-VYCEGAWLTWQC-NH2; linker 3-12 via mXylylene)	
	< 10	CC(=O)N[C@H](C(=O)N[C@@H](Cc1ccc(O)cc1)C(=O)N[C@H]1CSCc2cccc(c2)CSC(C)(C)[C@@H](C(N)=O)NC(=O)[C@H](C)NC(=O)[C@H](Cc2c[nH]c3ccccc23)NC(=O)[C@H]([C@@H](C)O)NC(=O)[C@H](CC(C)(C)C)NC(=O)[C@H](Cc2c[nH]c3ccccc23)NC(=O)[C@H](CC(=O)O)NC(=O)[C@H]2CCCN2C(=O)[C@H](CCC(=O)O)NC1=O)C(C)C [3BP-3493] (Ac-VYCE[dP]DW[tBuAla]TWA[Pen]-NH2; linker 3-12 via mXylylene)	
